The values that follow come from article PMC10648204, “Discovery of Novel Biphenyl Carboxylic Acid Derivatives as Potent URAT1 Inhibitors” (Molecules, 2023).

One series has as its system URAT1. The note with it: general statement in the introduction; cited from earlier work.
A further series has as its target T1, human URAT1 (Homo sapiens, UniProt Q96S37).
T1 construct: expressed in transfected cells; host or cells: HEK293T cells (ATCC CRL-11268)
T1 sequence (Q96S37 1-553): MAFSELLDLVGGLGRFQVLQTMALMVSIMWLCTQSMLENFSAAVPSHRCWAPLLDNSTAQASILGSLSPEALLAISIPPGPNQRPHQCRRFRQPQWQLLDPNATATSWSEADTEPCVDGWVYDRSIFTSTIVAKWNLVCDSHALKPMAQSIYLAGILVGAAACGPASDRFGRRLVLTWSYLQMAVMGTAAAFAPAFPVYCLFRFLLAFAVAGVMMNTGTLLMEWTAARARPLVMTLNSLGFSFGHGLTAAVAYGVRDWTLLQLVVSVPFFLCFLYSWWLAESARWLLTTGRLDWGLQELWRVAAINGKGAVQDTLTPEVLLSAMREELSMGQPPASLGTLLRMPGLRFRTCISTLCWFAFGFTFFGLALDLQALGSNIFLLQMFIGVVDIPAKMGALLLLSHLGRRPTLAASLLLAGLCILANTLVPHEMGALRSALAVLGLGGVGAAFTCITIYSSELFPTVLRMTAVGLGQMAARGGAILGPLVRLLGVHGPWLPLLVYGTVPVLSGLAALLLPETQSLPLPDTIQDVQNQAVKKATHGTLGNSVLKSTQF
The series can be described thus: In vitro URAT1 inhibitory assay (14C-uric acid uptake in HEK293T cells expressing human URAT1). It is filed as cell-based. The settings on record: HEK293-URAT1 cells, 14C-labeled uric acid substrate; for inhibition at 10 µM: HEK-293T, 10 μM compound, mean of three measurements. The method, then: All the target compounds were evaluated for their URAT1 inhibitory activities in HEK293-URAT1 cells using ^14C-labeled uric acid as the substrate. […] The SAR exploration on series A compounds mainly focused on the hydrophobic component. […] For series B compounds, the ortho-substituted biphenyl carboxylic acid was initially kept, and various aromatic components were incorporated (B1–B25). […] Different substituents were introduced onto the 4-pyridyl (B15–B21).
In Vitro URAT1 Inhibitory Assay. A transient expression system of human URAT1 in HEK293T cells was constructed to measure ^14C-uric acid transport. […] The cell cryovials were removed from liquid nitrogen storage, and immediately placed on dry ice prior to thawing. […] The cell suspension was transferred into a 15 mL centrifuge tube, and 10 mL complete medium (DMEM +10% FBS +500 μg/mL G418 +1% P/S) was added. After centrifugation at 1000 rpm for 5 min, the supernatant was discarded, and cell precipitation was resuspended in 5 mL complete medium and transferred to a T75 culture flask. […] The uptake assay test could be carried out after cell culture adherent to the well in the 96-well plate. Then, the cells were washed with 200 µL/well of pre-warmed Cl^- free HBSS buffer, and all buffer was removed at the last washing. 50 µL/well of Cl^- free HBSS Buffer containing Uric acid [8-^14C] (2.5 μCi/mL) and samples were added to the cells, and incubated for 8 min. Then, the cells were washed three times with Cl^- free HBSS Buffer and all buffer was removed at the last washing. 50 µL/well of lysis buffer (100 mM NaOH) was added to the lysate cells and stirred at 900 rpm for 5 min. 150 µL/well MicroScint™-40 cocktail was added and agitated at 900 rpm for 5 min. Finally, the 96-plate was counted in a MicroBeta2 (PerkinElmer). The data were analyzed and IC50 values was calculated with GraphPad Prism 6 software.

Take `CCc1oc2ccccc2c1C(=O)c1cc(Br)c(O)c(Br)c1` [Benz, benzbromarone]: the “IC50 (URAT1 inhibitor potency level, in words)” value with URAT1 was “submicromolar level”.

`O=C(O)c1ccccc1-c1ccc(C(=O)N2CCCc3ccccc32)cc1` [Compound A20] showed a melting point of 165 to 167 °C. Further, at human URAT1, the inhibition at 10 µM was under 10%.

`O=C(O)c1ccccc1-c1cccc(C(=O)N2CCCc3ccccc32)c1` [Compound A21]: the melting point is 100 to 102 °C. Moreover, on human URAT1, the inhibition at 10 µM is under 10%.

The compound `O=C(O)c1ccccc1-c1ccccc1-c1nc(-c2ccc(F)cc2)no1` [Compound B1] returned a melting point of 150 to 153 °C. Moreover, the inhibition at 10 µM at human URAT1 came out at 56%.

With `O=C(O)c1ccccc1-c1ccccc1-c1nc(-c2ccc(C(F)(F)F)cc2)no1` [Compound B2], the melting point lay within 173 to 175 °C. For the same compound, at human URAT1, testing at 10 µM gave an inhibition of 39%.

Compound `O=C(O)c1ccccc1-c1ccccc1-c1nc(-c2ccc(Cl)cc2)no1` [Compound B3] showed a melting point of 154 to 156 °C. Moreover, 10 µM produced 55% inhibition against human URAT1.

In turn, `O=C(O)c1ccccc1-c1ccccc1-c1nc(-c2ccc(Br)cc2)no1` [Compound B4] showed a melting point of 148 to 150 °C. Besides, on human URAT1, the inhibition at 10 µM came out at 61%.

With `COc1ccc(-c2noc(-c3ccccc3-c3ccccc3C(=O)O)n2)cc1` [Compound B5], the melting point lay within 154 to 157 °C. Moreover, testing at 10 µM against human URAT1 gave an inhibition of 68%.

`Cc1ccc(-c2noc(-c3ccccc3-c3ccccc3C(=O)O)n2)cc1` [Compound B6] returned a melting point of 151 to 153 °C. At human URAT1, this compound registered an inhibition at 10 µM of 45%.

Take `O=C(O)c1ccccc1-c1ccccc1-c1nc(-c2cccc(Br)c2)no1` [Compound B7]: the melting point lay in the range of 119 to 121 °C. The compound also had an inhibition at 10 µM against human URAT1 of 44%.

Take `O=C(O)c1ccccc1-c1ccccc1-c1nc(-c2ccco2)no1` [Compound B8]: the melting point fell in the range of 171 to 175 °C. This compound also displayed an inhibition at 10 µM against human URAT1 of 56%.

The compound `O=C(O)c1ccccc1-c1ccccc1-c1nc(-c2cccs2)no1` [Compound B9] showed a melting point of 140 to 142 °C. The compound also gave an inhibition at 10 µM against human URAT1 of 68%.

On to `O=C(O)c1ccccc1-c1ccccc1-c1nc(-c2ccsc2)no1` [Compound B10], for which the melting point lay in the range of 146 to 148 °C. In addition, testing at 10 µM against human URAT1 gave an inhibition of 69%.

The compound `O=C(O)c1ccccc1-c1ccccc1-c1nc(-c2ccncn2)no1` [Compound B11] showed a melting point of 167 to 169 °C. This compound yielded an inhibition at 10 µM at human URAT1 of 30%.

Compound `O=C(O)c1ccccc1-c1ccccc1-c1nc(-c2ccccn2)no1` [Compound B12] displayed a melting point of 190 to 193 °C. For the same compound, at 10 µM the inhibition on human URAT1 was 27%.

On to `O=C(O)c1ccccc1-c1ccccc1-c1nc(-c2cccnc2)no1` [Compound B13], for which the melting point was in the range of 210 to 212 °C. At human URAT1, this compound had an inhibition at 10 µM of 64%.

With `O=C(O)c1ccccc1-c1ccccc1-c1nc(-c2ccncc2)no1` [Compound B14], the melting point was in the range of 188 to 191 °C. On human URAT1, this compound came in with an IC50 of 1800 nM and an inhibition at 10 µM of 88%.

For `O=C(O)c1ccccc1-c1ccccc1-c1nc(-c2ccnc(Br)c2)no1` [Compound B15], the melting point fell in the range of 165 to 168 °C. For the same compound, on human URAT1, the 50% inhibitory concentration (IC50) stood at 250 nM and the inhibition at 10 µM was 97%.

On to `O=C(O)c1ccccc1-c1ccccc1-c1nc(-c2ccnc(Cl)c2)no1` [Compound B16], for which the melting point is 145 to 147 °C. On human URAT1, this compound yielded a half-maximal inhibitory concentration (IC50) of 270 nM and an inhibition at 10 µM of 97%.

For the compound `O=C(O)c1ccccc1-c1ccccc1-c1nc(-c2ccnc(F)c2)no1` [Compound B17], the melting point lay within 98 to 100 °C. At human URAT1, it took 980 nM to reach half-maximal inhibition (IC50) and 10 µM produced 90% inhibition.

The compound `Cc1cc(-c2noc(-c3ccccc3-c3ccccc3C(=O)O)n2)ccn1` [Compound B18] came in with a melting point of 228 to 230 °C. In addition, at human URAT1, the IC50 worked out at 280 nM and the inhibition at 10 µM came to 97%.

`COc1cc(-c2noc(-c3ccccc3-c3ccccc3C(=O)O)n2)ccn1` [Compound B19] gave a melting point of 154 to 156 °C. At human URAT1, this compound came in with an IC50 of 420 nM and an inhibition at 10 µM of 96%.

Take `Cc1cc(-c2noc(-c3ccccc3-c3ccccc3C(=O)O)n2)cc(C)n1` [Compound B20]: the melting point fell in the range of 214 to 216 °C. Besides, at human URAT1, half-maximal inhibition (IC50) required 3100 nM and the inhibition at 10 µM was determined as 76%.

As for `O=C(O)c1ccccc1-c1ccccc1-c1nc(-c2ccnc3ccccc23)no1` [Compound B22], the melting point lay in the range of 258 to 259 °C. Besides, at human URAT1, the IC50 amounted to 1100 nM and at 10 µM the inhibition was 89%.

Compound `O=C(O)c1ccccc1-c1ccccc1-c1nc(-c2cnc3ccccc3c2)no1` [Compound B23] gave a melting point of 236 to 238 °C. Also, on human URAT1, the IC50 came out at 6100 nM and the inhibition at 10 µM turned out to be 74%.

Compound `O=C(O)c1ccccc1-c1ccccc1-c1nc(-c2ccc3ncccc3c2)no1` [Compound B24] registered a melting point of 264 to 266 °C. The compound also yielded an inhibition at 10 µM against human URAT1 of 67%.

Regarding `COc1ccc(-c2noc(-c3ccccc3-c3ccccc3C(=O)O)n2)c2ccccc12` [Compound B25], the melting point fell in the range of 169 to 171 °C. At human URAT1, this compound yielded an inhibition at 10 µM of 42%.

`O=C(O)CCNC(=O)c1ccccc1-c1ccccc1-c1nc(-c2ccncc2Cl)no1` [Compound B26] showed a melting point of 240 to 242 °C. Moreover, on human URAT1, testing at 10 µM gave an inhibition of 35%.

In turn, `O=C(NS(=O)(=O)c1ccc(Br)cc1)c1ccccc1-c1ccccc1-c1nc(-c2ccncc2Cl)no1` [Compound B27] came in with a melting point of 188 to 190 °C. Also, on human URAT1, half-maximal inhibition (IC50) was put at 1300 nM and 10 µM produced 96% inhibition.

In the case of `O=C(O)c1cccc(-c2ccccc2-c2nc(-c3ccncc3)no2)c1` [Compound B28], the melting point is 288 to 289 °C. Moreover, on human URAT1, the inhibition at 10 µM worked out at 29%.

`O=C(O)c1ccc(-c2ccccc2-c2nc(-c3ccncc3)no2)cc1` [Compound B29] gave a melting point of 258 to 260 °C. This compound returned an inhibition at 10 µM against human URAT1 of 18%.

For the compound `O=C(O)c1ccccc1-c1ccccc1-c1nnc(-c2ccncc2)o1` [Compound B30], the melting point lay in the range of 237 to 239 °C. In addition, the inhibition at 10 µM against human URAT1 was 33%.

`O=C(O)CSc1nnc(Br)n1-c1ccc(C2CC2)c2ccccc12` [Lesinurad]: the “IC50 (URAT1 inhibitor potency level, in words)” value with URAT1 is “micromolar level”.
